{
  "source": "patent US6043228A",
  "about": "“O^6 -substituted guanine derivatives, a process for their preparation and their use in treating tumor cells” (Cancer Research Campaign Technology Limited, priority 1993, dated 2000)",
  "key": {"Raji cells": {"tested_on": "Raji cells", "assay": "Sensitization of Raji cells to temozolomide (XTT assay)", "format": "cell-based, human", "method": "Following a 2 hour incubation at 37° C., medium containing either increasing doses of BCNU, temozolomide or equivalent vehicle was added and the cells allowed to grow for 6 days. At this time XTT solution was added and the cells incubated for a further 4 hours at 37° C. The resulting red/orange formazan reaction product was quantified by measuring absorption at 450 nm on a microtitre platereader."}, "recombinant human ATase": {"biological_target": "T1, recombinant human ATase (Homo sapiens, UniProt P16455)", "T1 construct": "made in house", "T1 sequence (P16455 1-207)": "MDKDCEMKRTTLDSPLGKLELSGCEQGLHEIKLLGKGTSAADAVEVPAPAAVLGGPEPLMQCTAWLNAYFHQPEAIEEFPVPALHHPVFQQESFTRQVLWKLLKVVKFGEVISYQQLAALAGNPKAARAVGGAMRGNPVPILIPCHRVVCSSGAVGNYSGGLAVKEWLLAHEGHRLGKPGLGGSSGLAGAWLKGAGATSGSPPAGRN", "assay": "In vitro ATase inactivation assay (incubation with inactivators and ATase assay)", "format": "biochemical", "conditions": "for ATase inactivation in vitro, result in words: recombinant human ATase, standard conditions", "method": "The cDNA cloning and overexpression of the human ATase has been reported previously^23. Purification of the recombinant proteins was achieved either by affinity chromatography through a DNA-cellulose column as described by Wilkinson et al.,^25, 26 or by DEAE-cellulose ion-exchange chromatography. For the latter, the ATase protein was partially purified by ammonium sulphate precipitation (30-60%) and dialysed against 10 mM Tris-HCl pH 7.5, 1 mM DTT, 2 mM EDTA, 10% glycerol, before loading on a DEAE-cellulose column. The ATase was then eluted with a 0-0.1 M NaCl gradient.\nCompounds to be tested were dissolved in DMSO to a final concentration of 10 mM and diluted just before use in buffer I containing 1 mg/ml bovine serum albumin (IBSA). Recombinant ATase was diluted in IBSA and titrated in order that the reaction be conducted under ATase, and not substrate, limiting conditions. […] Following acid hydrolysis of the DNA as previously described^21 the [^3 H]-methylated protein was recovered and quantitated by liquid scintillation counting. Samples were typically assayed in duplicate and experiments repeated several times. I50 is the concentration of inactivator required to produce a 50% reduction in ATase activity."}, "DBA2 mice": {"tested_on": "DBA2 mice", "assay": "Toxicity of inactivators in combination with temozolomide in non-tumour-bearing DBA2 mice", "format": "in vivo, mouse", "conditions": "20 mg/kg inactivator + temozolomide 100 mg/kg i.p., four consecutive days (FIG. 25)", "method": "FIG. 25 is a graph showing the survival of animals in a comparative test of toxicity of BeG, B.4205 and B.4280 in combination with temozolomide (TZ) in non-tumour-bearing DBA, mice. Animals were given temozolomide alone (100 mg/kg i.p) or BeG (10 or 20 mg/kg i.p.), B.4205 (10 or 20 mg/kg i.p.) or B.4280 (10 or 20 mg/kg i.p.) followed one hour later by temozolomide (100 mg/kg i.p.) on four consecutive days. The vehicles were corn oil for the inactivators and PBS (20% DMSO) for temozolomide."}, "[1]": {"biological_target": "T2, ATase in human melanoma xenografts (Homo sapiens, UniProt P16455)", "T2 construct": "A375M cells are human melanoma cells from which the xenografts described below were established; endogenous in cells; host or cells: A375M xenograft grown in nude mice", "T2 sequence (P16455 1-207)": "T1 sequence (P16455 1-207)", "assay": "ATase activity in human melanoma (A375) xenografts grown in nude mice after inactivator", "format": "in vivo", "conditions": "for ATase mean activity (fm/mg): Tumour; for inactivation of ATase in human melanoma xenografts, in words: single i.p. dose 30 or 60 mg/kg (FIG. 17)", "method": "Cells (10^6) in 100 μl of PBS were injected subcutaneously into the right-hand flank of 8-10 week old nu/nu athymic mice. These cells were allowed to develop into a tumour for 3-4 weeks for passaging into experimental animals. Tumour blocks measuring 2 mm×2 mm×2 mm were implanted subcutaneously on the right hand flank. These animals were ready for use in inactivator experiments in 7-10 days.\nATase substrate DNA was prepared by incubation of purified calf thymes DNA with N-[^3 H]-methyl-N-nitrosuourea (18.7 Ci/mmole, Amersham International). Cell or tissue extracts (see 4.4) were incubated with [^3 H]-methylated-DNA substrate (100 μl containing 6.7 μg of DNA and 100 fmol of O^6 -[^3 H]methylguanine) at 37° C. for 60 mins. Following acid hydrolysis of the DNA as precviously described^21the [^3 H]-methylated protein was recovered and quantitated by liquid scintillation counting.\nMice were treated with the inactivator as a suspension in corn oil by intraperitoneal injection (i.p.) or by oral gavage (p.o.) 60 mins prior to temozolomide (100 mg/kg in 20% DMSO in phosphate-buffered saline) which was always given by intraperitoneal injection: this schedule was repeated on days 1 to 5 inclusive. Controls received vehicle alone, inactivator alone or temozolomide alone."}, "ATase": {"biological_target": "T3, ATase (Mus musculus, UniProt P26187)", "T3 construct": "Effect of B.4280 on ATase activity in several tissues of nude mice; from tissue; host or cells: liver, lung, kidney, spleen, brain, testis and bone marrow of nu/nu mice", "T3 sequence (P26187 1-211)": "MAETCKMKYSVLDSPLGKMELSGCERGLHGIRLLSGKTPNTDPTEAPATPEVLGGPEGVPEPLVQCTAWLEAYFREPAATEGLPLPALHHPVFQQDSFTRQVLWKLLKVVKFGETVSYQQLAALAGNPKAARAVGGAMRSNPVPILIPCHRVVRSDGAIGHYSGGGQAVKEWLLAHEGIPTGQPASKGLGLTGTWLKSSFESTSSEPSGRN", "assay": "ATase activity in tissues of nude mice after inactivator", "format": "in vivo", "conditions": "for inactivation of ATase in mouse tissues, in words: single dose (FIG. 18, Table 10)", "method": "ATase substrate DNA was prepared by incubation of purified calf thymes DNA with N-[^3 H]-methyl-N-nitrosuourea (18.7 Ci/mmole, Amersham International). Cell or tissue extracts (see 4.4) were incubated with [^3 H]-methylated-DNA substrate (100 μl containing 6.7 μg of DNA and 100 fmol of O^6 -[^3 H]methylguanine) at 37° C. for 60 mins. Following acid hydrolysis of the DNA as precviously described^21the [^3 H]-methylated protein was recovered and quantitated by liquid scintillation counting. […]\nThe mice in the tests shown in FIGS. 17 and 18 were BALB-C derived athymic male mice (nu/nu athymic) from the in-house breeding colony at the Paterson Institute for Cancer Research as described above (Animal Services Unit-ASU Mice).\nAnimals were given a single dose of B.4280 (10 mg/kg i.p.) and sacrificed"}, "[2]": {"biological_target": "T2, ATase in human melanoma xenografts", "assay": "ATase activity in human melanoma (A375) xenografts grown in nude mice after inactivator", "format": "in vivo", "conditions": "with temozolomide 50 mg/kg i.p., three consecutive days, 24 hours after final dose (FIG. 19)"}},
  "note": "“And” between values parts separate entries of the source, which are not always exact repeats. Equal entries are not always repeated. “Also recorded” adds a separate entry of the source.",
  "data": [
    {"smiles": "Nc1nc(OCc2cc(Br)cs2)c2nc[nH]c2n1", "note": "[B.4280, O^6-(4-bromothenyl)guanine]", "values": [
      {"measurement": "sensitization of Raji cells to temozolomide, in words", "setting": "Raji cells; 0.5 μM inactivator, 2 hours before temozolomide (FIG. 16)", "value": "much more effective than either B.4205 or BeG"},
      {"measurement": "IC50", "setting": "recombinant human ATase", "value": 3.4, "unit": "nM"},
      {"measurement": "ATase inactivation in vitro, result in words", "setting": "recombinant human ATase", "value": "more efficient in inactivating ATase in vitro than its 5-bromo analogue B.4269; also recorded: more efficient than the unsubstituted thenyl derivative B.4205"},
      {"measurement": "acute toxicity in combination with temozolomide in DBA2 mice, in words", "setting": "DBA2 mice", "value": "less acutely toxic than BeG; also recorded: less acutely toxic than B.4205"},
      {"measurement": "recovery of tumour ATase activity, in words", "setting": "[1]; 10 mg/kg i.p. (Table 10)", "value": "very low at 24 hours but had recovered completely by 48 hours"},
      {"measurement": "ATase mean activity (fm/mg)", "setting": "[1]; 24 h after 10 mg/kg i.p.", "value": "36 ± 7.79", "unit": "fm/mg"},
      {"measurement": "ATase mean activity (fm/mg)", "setting": "[1]; 48 h after 10 mg/kg i.p.", "value": "140 ± 43.87", "unit": "fm/mg"},
      {"measurement": "inactivation of ATase in human melanoma xenografts, in words", "setting": "[1]", "value": "inactivated; also recorded: the most effective in vivo inactivator at the doses examined"},
      {"measurement": "ATase mean activity (fm/mg)", "setting": "ATase; Bone Marrow (pooled), 24 h after 10 mg/kg i.p.", "value": 42, "unit": "fm/mg"},
      {"measurement": "ATase mean activity (fm/mg)", "setting": "ATase; Bone Marrow (pooled), 48 h after 10 mg/kg i.p.", "value": 61, "unit": "fm/mg"},
      {"measurement": "ATase mean activity (fm/mg)", "setting": "ATase; Brain, 24 h after 10 mg/kg i.p.", "value": "13.7 ± 2.05", "unit": "fm/mg"},
      {"measurement": "ATase mean activity (fm/mg)", "setting": "ATase; Brain, 48 h after 10 mg/kg i.p.", "value": "16.3 ± 1.25", "unit": "fm/mg"},
      {"measurement": "ATase mean activity (fm/mg)", "setting": "ATase; Kidney, 24 h after 10 mg/kg i.p.", "value": "24.3 ± 4.03", "unit": "fm/mg"},
      {"measurement": "ATase mean activity (fm/mg)", "setting": "ATase; Kidney, 48 h after 10 mg/kg i.p.", "value": "28.7 ± 4.11", "unit": "fm/mg"},
      {"measurement": "ATase mean activity (fm/mg)", "setting": "ATase; Liver, 24 h after 10 mg/kg i.p.", "value": "89.7 ± 10.14", "unit": "fm/mg"},
      {"measurement": "ATase mean activity (fm/mg)", "setting": "ATase; Liver, 48 h after 10 mg/kg i.p.", "value": "100.7 ± 8.73", "unit": "fm/mg"},
      {"measurement": "ATase mean activity (fm/mg)", "setting": "ATase; Lung, 24 h after 10 mg/kg i.p.", "value": "15.3 ± 2.05", "unit": "fm/mg"},
      {"measurement": "ATase mean activity (fm/mg)", "setting": "ATase; Lung, 48 h after 10 mg/kg i.p.", "value": "24 ± 2.83", "unit": "fm/mg"},
      {"measurement": "ATase mean activity (fm/mg)", "setting": "ATase; Spleen, 24 h after 10 mg/kg i.p.", "value": "41 ± 5.35", "unit": "fm/mg"},
      {"measurement": "ATase mean activity (fm/mg)", "setting": "ATase; Spleen, 48 h after 10 mg/kg i.p.", "value": "68.3 ± 9.53", "unit": "fm/mg"},
      {"measurement": "ATase mean activity (fm/mg)", "setting": "ATase; Testis, 24 h after 10 mg/kg i.p.", "value": "45 ± 7.48", "unit": "fm/mg"},
      {"measurement": "ATase mean activity (fm/mg)", "setting": "ATase; Testis, 48 h after 10 mg/kg i.p.", "value": "44 ± 1.41", "unit": "fm/mg"},
      {"measurement": "inactivation of ATase in mouse tissues, in words", "setting": "ATase", "value": "able to inactivate ATase in most tissues"},
      {"measurement": "ATase inactivation in tumour xenografts, in words", "setting": "[2]", "value": "more effective in ATase inactivation in tumour xenografts than either agent alone; also recorded: more effective than B.4205 at equivalent doses"}
    ]},
    {"smiles": "Nc1nc(OCc2cccs2)c2nc[nH]c2n1", "note": "[B.4205, 0^6 -thenylguanine]", "values": [
      {"measurement": "sensitising Raji cells to growth inhibitory effects of temozolomide, in words", "setting": "Raji cells; 0.1 μM inactivator (FIG. 3)", "value": "more effective than BeG"},
      {"measurement": "dose response of Raji sensitization to temozolomide, in words", "setting": "Raji cells; 0.1-5.0 μM inactivator (FIGS. 3, 4)", "value": "lack of dose response"},
      {"measurement": "ATase inactivation in vitro, result in words", "setting": "recombinant human ATase", "value": "considerably better; also recorded: I50 values lower than that of BeG"},
      {"measurement": "acute toxicity in combination with temozolomide in DBA2 mice, in words", "setting": "DBA2 mice", "value": "less acutely toxic than BeG"},
      {"measurement": "inactivating ATase in human melanoma xenografts, in words", "setting": "[1]; 30 mg/kg (FIG. 8)", "value": "as effetive as BeG"},
      {"measurement": "inactivation of ATase in human melanoma xenografts, in words", "setting": "[1]", "value": "inactivated"},
      {"measurement": "inactivation of ATase in mouse tissues, in words", "setting": "ATase", "value": "able to inactivate ATase in most mouse tissues examined but there was less inactivation in brain than other tissues"},
      {"measurement": "ATase inactivation in tumour xenografts, in words", "setting": "[2]", "value": "more effective in ATase inactivation in tumour xenografts than either agent alone and 10 mg/kg being ag ettentive as 60 mg/kg"}
    ]}
  ]
}
